What is called inhibition is how much of the control response was suppressed. As usually defined, the IC50 is the concentration needed to halve the response being measured. Higher therefore signals lower potency.

Sequence of IBAT (P70172 whole entry): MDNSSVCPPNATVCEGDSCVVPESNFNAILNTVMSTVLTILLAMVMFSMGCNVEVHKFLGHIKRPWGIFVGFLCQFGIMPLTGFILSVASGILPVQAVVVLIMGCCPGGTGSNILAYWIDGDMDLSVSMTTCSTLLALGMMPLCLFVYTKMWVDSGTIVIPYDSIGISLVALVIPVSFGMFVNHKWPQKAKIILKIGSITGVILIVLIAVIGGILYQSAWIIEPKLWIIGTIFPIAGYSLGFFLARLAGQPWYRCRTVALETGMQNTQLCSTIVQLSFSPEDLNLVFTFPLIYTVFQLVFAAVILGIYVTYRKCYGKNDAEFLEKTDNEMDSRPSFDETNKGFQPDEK
Sequence of Ileal Bile Acid Transporter Human (Q12908 whole entry): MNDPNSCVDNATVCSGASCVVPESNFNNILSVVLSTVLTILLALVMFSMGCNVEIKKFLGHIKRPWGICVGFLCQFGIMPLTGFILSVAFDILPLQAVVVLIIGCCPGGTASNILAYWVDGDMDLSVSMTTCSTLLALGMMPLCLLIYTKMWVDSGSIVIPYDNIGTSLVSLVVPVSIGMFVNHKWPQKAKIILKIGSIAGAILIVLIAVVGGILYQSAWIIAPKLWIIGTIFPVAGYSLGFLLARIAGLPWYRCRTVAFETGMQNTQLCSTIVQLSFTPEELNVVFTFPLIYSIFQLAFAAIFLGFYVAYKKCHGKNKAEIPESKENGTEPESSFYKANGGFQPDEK

One test has as its target IBAT (Mus musculus (Mouse), UniProt P70172). In words: 75SeHCAT intestinal absorption in ApoE knock out mice (IBAT inhibitory effect). The test is classed as in vivo. The conditions noted are these: po, oral dose 0.156 μmol/kg, 75SeHCAT absorption over 24 hours. The method, then:
Species Mouse; Strain ApoE knock out; Sub strain C57BL/6; Sex Female; Total No. of animals 70; Body weight range 20 g to 22 g; Supplier Möllegaard's Breeding (Skensved, Denmark); Identification method ID cards (bar code).
Acclimatisation At least one week at the Section of Laboratory; Animal Resource at AstraZeneca; Housing conditions Kept five by five in cages (Makrolon III, 7 dm2) in a room with regulated temperature (22° C.), relative humidity (40% to 60%) and a 12/12 hours light/dark cycle. Diet Free access to R3 pellets (Lactamin, Vadstena, Sweden) during the housing and experimental period. Water, free access to tap water during the housing and experimental period.
The animals were orally administered vehicle (n=3) or the compound of Example 14 (0.156 (n=3), 0.625 (n=3) or 2.5 μmol/kg (n=3)) at 13:00 o'clock on the experimental day. Thirty minutes later, a trace amount of ^75SeHCAT (^75Se-homo-tauro-cholic acid) ([…] per 0.1 mL per mouse) was orally given to each mouse. Twenty-four hours after ^75SeHCAT administration, the animals were killed by CO2 inhalation. At sacrifice, the gall bladder and the whole intestine were removed, and the faeces during the 24-hour period after ^75SeHCAT administration was collected for each mouse. The gamma radioactivities of ^75SeHCAT in the faeces and in the gall bladder-intestine were separately counted by 1282 CompuGamma CS Gamma counter (Wallac oy, Turku, Finland). The stability as well as the quantity of the ^75SeHCAT administered to each mouse, were controlled with an additional ^75SeHCAT aliquot following the same experimental process as other tested samples in the study.
The sum of the gamma counts from both the faeces and the gall bladder-intestine was considered as the total recovered ^75SeHCAT, which was averaged around 85% of the total ^75SeHCAT administered to each mouse. Of the recovered radioactivity of ^75SeHCAT, the percentage of the ^75SeHCAT detected in the faeces was considered as the faecal excretion while that in the gall bladder-intestine as body retention. Inhibitory effect of the compound of Example 14 on ^75SeHCAT intestinal absorption was calculated following the ^75SeHCAT body retention and the faecal excretion, and the ED50 of the compound was estimated following the dose-effect curve.
The mean IBAT inhibitory effect (%) at a dose (μmol/kg): 0.156 was determined for the compounds of examples 1-14 and is reported in Table 1.
`CCCCC1(CCCC)CN(c2ccccc2)c2cc(SC)c(OCC(=O)N[C@@H](C(=O)N[C@@H](CSC)C(=O)O)c3ccc(O)cc3)cc2S(=O)(=O)N1` [Example 6, 1,1-Dioxo-3,3-dibutyl-5-phenyl-7-methylthio-8-(N—{(R)-α-[N—((R)-1-carboxy-2-methylthio-ethyl)carbamoyl]-4-hydroxybenzyl}carbamoylmethoxy)-2,3,4,5-tetra hydro-1,2,5-benzothiadiazepine] came in with an inhibition at 0.156 µmol/kg of 59%.
The same measure, in the same setting: the value for `CCCCC1(CCCC)CN(c2ccccc2)c2cc(SC)c(OCC(=O)N[C@@H](C(=O)N[C@H](C(=O)O)C(C)C)c3ccc(O)cc3)cc2S(=O)(=O)N1` [Example 13, 1,1-Dioxo-3,3-dibutyl-5-phenyl-7-methylthio-8-(N—{(R)-α-[N—((S)-1-carboxy-2-methylpropyl)carbamoyl]-4-hydroxybenzyl}carbamoylmethoxy)-2,3,4,5-tetra hydro-1,2,5-benzothiadiazepine] was 68%.
Still for that read-out and setting: the value for `CCCCC1(CCCC)CN(c2ccccc2)c2cc(SC)c(OCC(=O)N[C@@H](C(=O)N[C@@H](C)C(=O)O)c3ccccc3)cc2S(=O)(=O)N1` [Example 10, 1,1-Dioxo-3,3-dibutyl-5-phenyl-7-methylthio-8-(N—{(R)-α-[N—((S)-1-carboxyethyl)carbamoyl]benzyl}carbamoylmethoxy)-2,3,4,5-tetrahydro-1,2,5-benzothiadiazepine] was 68%.
`CCCCC1(CCCC)CN(c2ccccc2)c2cc(SC)c(OCC(=O)N[C@@H](C(=O)N[C@@H](C)C(=O)O)c3ccc(O)cc3)cc2S(=O)(=O)N1` [Example 12, 1,1-Dioxo-3,3-dibutyl-5-phenyl-7-methylthio-8-(N—{(R)-α-[N—((S)-1-carboxyethyl)carbamoyl]-4-hydroxybenzyl}carbamoylmethoxy)-2,3,4,5-tetrahydro-1,2,5-benzothiadiazepine]: the inhibition at 0.156 µmol/kg turned out to be 63%.
Still for that read-out and setting: in the case of `CCCCC1(CCCC)CN(c2ccccc2)c2cc(SC)c(OCC(=O)N[C@@H](C(=O)N[C@H](C(=O)O)[C@@H](C)O)c3ccc(O)cc3)cc2S(=O)(=O)N1` [Example 8, 1,1-Dioxo-3,3-dibutyl-5-phenyl-7-methylthio-8-(N—{(R)-α-[N—((S)-1-carboxy-2-(R)-hydroxypropyl)carbamoyl]-4-hydroxybenzyl}carbamoylmethoxy)-2,3,4,5-tetrahydro-1,2,5-benzothiadiazepine] it was 46%; in that of `CCCCC1(CCCC)CN(c2ccccc2)c2cc(SC)c(OCC(=O)N[C@@H](C(=O)N[C@@H](CC)C(=O)O)c3ccccc3)cc2S(=O)(=O)N1` [Example 3, 1,1-Dioxo-3,3-dibutyl-5-phenyl-7-methylthio-8-(N—{(R)-α-[N—((S)-1-carboxypropyl)carbamoyl]benzyl}carbamoylmethoxy)-2,3,4,5-tetrahydro-1,2,5-benzothiadiazepine], 63%; in that of `CCCCC1(CCCC)CN(c2ccccc2)c2cc(SC)c(OCC(=O)N[C@@H](C(=O)N[C@@H](CC)C(=O)O)c3ccc(O)cc3)cc2S(=O)(=O)N1` [Example 5, 1,1-Dioxo-3,3-dibutyl-5-phenyl-7-methylthio-8-(N—{(R)-α-[N—((S)-1-carboxypropyl)carbamoyl]-4-hydroxybenzyl}carbamoylmethoxy)-2,3,4,5-tetrahydro-1,2,5-benzothiadiazepine], 74%.
Same read-out and setting: in the case of `CCCCC1(CCCC)CN(c2ccccc2)c2cc(SC)c(OCC(=O)N[C@@H](C(=O)N[C@H](C(=O)O)C(C)C)c3ccccc3)cc2S(=O)(=O)N1` [Example 7, 1,1-Dioxo-3,3-dibutyl-5-phenyl-7-methylthio-8-(N—{(R)-α-[N—((S)-1-carboxy-2-methylpropyl)carbamoyl]benzyl}carbamoylmethoxy)-2,3,4,5-tetrahydro-1,2,5-benzothiadiazepine] it was 66%; in that of `CCCCC1(CCCC)CN(c2ccccc2)c2cc(SC)c(OCC(=O)N[C@@H](C(=O)NCC(=O)O)c3ccccc3)cc2S(=O)(=O)C1` [Example 14, 1,1-Dioxo-3,3-dibutyl-5-phenyl-7-methylthio-8-(N—{(R)-1′-phenyl-1′-[N′-(carboxymethyl)carbamoyl]methyl}carbamoylmethoxy)-2,3,4,5-tetrahydro-1,5-benzothiazepine], 28%; in that of `CCCCC1(CCCC)CN(c2ccccc2)c2cc(SC)c(OCC(=O)N[C@@H](C(=O)N[C@@H](CSC)C(=O)O)c3ccccc3)cc2S(=O)(=O)N1` [Example 4, 1,1-Dioxo-3,3-dibutyl-5-phenyl-7-methylthio-8-(N—{(R)-α-[N—((R)-1-carboxy-2-methylthioethyl)carbamoyl]benzyl}carbamoylmethoxy)-2,3,4,5-tetrahydro-1,2,5-benzothiadiazepine], 63%.
The same measure, in the same setting: in the case of `CCCCC1(CCCC)CN(c2ccccc2)c2cc(SC)c(OCC(=O)N[C@@H](C(=O)NCC(=O)O)c3ccccc3)cc2S(=O)(=O)N1` [Example 1, 1,1-Dioxo-3,3-dibutyl-5-phenyl-7-methylthio-8-(N—{(R)-α-[N-(carboxymethyl)carbamoyl]benzyl}carbamoylmethoxy)-2,3,4,5-tetrahydro-1,2,5-benzothiadiazepine] it was 43%.
In the case of `CCCCC1(CCCC)CN(c2ccccc2)c2cc(SC)c(OCC(=O)N[C@@H](C(=O)N[C@@H](CCC)C(=O)O)c3ccc(O)cc3)cc2S(=O)(=O)N1` [Example 9, 1,1-Dioxo-3,3-dibutyl-5-phenyl-7-methylthio-8-(N—{(R)-α-[N—((S)-1-carboxybutyl)carbamoyl]-4-hydroxybenzyl}carbamoylmethoxy)-2,3,4,5-tetrahydro-1,2,5-benzothiadiazepine], the inhibition at 0.156 µmol/kg came out at 67%.

The subject of a further test is Mdr2−/− mice. In words: In vivo animal model of primary sclerosing cholangitis (Mdr2-/- mice). The settings on record: daily oral gavage for 2-4 weeks, vs vehicle. The source says: A genetic mice with targeted disruption of the Multidrug resistant Mdr2 (Abcb4) gene encoding a canalicular phospholipid flippase (Mdr2−/−mice) spontaneously develop sclerosing cholangitis with macroscopic and microscopic features of human Primary sclerosing cholangitis. Bile duct injury in these mice is linked to defective biliary phospholipid secretion resulting in an increased concentration of free non-micellar bile acids which subsequently cause bile duct epithelial cell (cholangiocyte) injury, pericholangitis, periductal fibrosis with ductular proliferation and finally sclerosing cholangitis. […] In analogy to the Mdr2−/− mouse model of sclerosing cholangitis, Multidrug resistant protein MDR3/ABCB4 (the human orthologue of rodent Mdr2/Abcb4) defects play a role in the pathogenesis of various cholangiopathies in humans. MDR3 variants play a role as a modifier gene in the pathogenesis of various cholangiopathies such as PSC, Primary Biliary cirrhosis (PBC) and adulthood idiopathic ductopenia/biliary fibrosis.
Mdr2−/− mice were given daily oral doses of the compound of Example 14 by gavage for 2-4 weeks and controls were dosed the vehicle in the same way. Serum liver tests, liver histology and fibrosis were investigated. The compound of Example 14 improves liver tests, liver histology and fibrosis.
For the compound `CCCCC1(CCCC)CN(c2ccccc2)c2cc(SC)c(OCC(=O)N[C@@H](C(=O)NCC(=O)O)c3ccccc3)cc2S(=O)(=O)C1` [Example 14, 1,1-Dioxo-3,3-dibutyl-5-phenyl-7-methylthio-8-(N—{(R)-1′-phenyl-1′-[N′-(carboxymethyl)carbamoyl]methyl}carbamoylmethoxy)-2,3,4,5-tetrahydro-1,5-benzothiazepine], the fibrosis entry is recorded as “improves”, the liver histology result was “improves” and the “liver tests (serum)” value is listed as “improves”.

A further test addresses Ileal Bile Acid Transporter Human (Homo sapiens (Human), UniProt Q12908). In words: ISBT Hu HEK Uptake SPA: glycocholic acid uptake, radiometric SPA. The test is classed as cell-based. The settings on record: human IBAT in HEK cells. How it is done:
ISBT Hu HEK Uptake SPA 13203 IBAT HUM Ileal Bile Acid Transporter Human HEK Glycocholic acid Uptake Radiometric—SPA Inhibitor IC50 Mean IC50 (nM) was determined for the compounds of examples 1-14
As to `CCCCC1(CCCC)CN(c2ccccc2)c2cc(SC)c(OCC(=O)N[C@@H](C(=O)N[C@H](C(=O)O)C(C)C)c3ccc(O)cc3)cc2S(=O)(=O)N1` [Example 13, 1,1-Dioxo-3,3-dibutyl-5-phenyl-7-methylthio-8-(N—{(R)-α-[N—((S)-1-carboxy-2-methylpropyl)carbamoyl]-4-hydroxybenzyl}carbamoylmethoxy)-2,3,4,5-tetra hydro-1,2,5-benzothiadiazepine], the IC50 is 0.13 nM.

(Values after patent US10093697B2, “IBAT inhibitors for the treatment of liver diseases” (Albireo AB, priority 2010, dated 2018).)
